These results are taken from ChEMBL document CHEMBL1201862, “PubChem BioAssay data set” (2004).

What all share (experiment): NCI anticancer screen, dose series, 48 h
Assay [1] relates to SK-MEL-28.
Assay [2] deals with Malme-3M.
The subject of assay [3] is NCI/ADR-RES.
Assay [4] concerns OVCAR-5.
Assay [5] relates to MDA-MB-435.
Assay [6] has as its system OVCAR-8.
The subject of assay [7] is MDA-MB-231.
Assay [8] deals with HL-60.
The test system of assay [9] is ACHN.
Assay [10] concerns EKVX.
The test system of assay [11] is NCI-H23.
Assay [12] deals with HCC 2998.
In assay [13] the test system is SNB-19.
In assay [14] the test system is LOX IMVI.
Assay [15] has as its system U-251.
The subject of assay [16] is A549.
For assay [17], the system named is 786-0.
The subject of assay [18] is SK-MEL-2.
Assay [19] has as its system OVCAR-3.
Assay [20] has as its system UACC-62.

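Cells were grown in 96-well plates and exposed to each compound for 48 hours at five concentrations; endpoints were interpolated linearly between bracketing concentrations, or set to the highest concentration if not reached. GI50: concentration for 50% inhibition of growth.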 Activity calls are given as the source filed them. No stated cut-off is given here; in the data, active = GI50 up to about 1.1 µM and inactive = higher.

For the compound `OCCC/N=C1N=C(Cl)/C(=C\c2ccccc2)N\1`, the GI50 in [1], in assay [2], in [3], in assay [4], in assay [5] and in assay [6] was > 100 µM (inactive) each time. The GI50 in [7], in [8], in assay [9], in assay [10], in assay [11] and in assay [12] was > 100 µM (inactive) throughout. For the same compound, the GI50 in [13], in assay [14], in assay [15], in assay [16] and in [17] was > 100 µM (inactive) each time.
As for `CN1CCN(Cn2nc(-c3ccccc3)n(/N=C/c3ccc(-c4ccc(Cl)cc4Cl)o3)c2=S)CC1`, the GI50 in [1] is 12.1 µM (inactive); in assay [18], 20.7 µM (inactive); in assay [3], 16 µM (inactive); in assay [4], 15.2 µM (inactive); in assay [5] it was 11.4 µM (inactive); in assay [19], 11.7 µM (inactive). Besides, the GI50 is 8.45 µM (inactive) in [6]; 13.9 µM (inactive) in [7]; 4.58 µM (inactive) in assay [8]; 30.1 µM (inactive) in [10]; 18.7 µM (inactive) in assay [11]; 12.8 µM (inactive) in assay [12]. For the same compound, the results for the GI50 in [14], in assay [15] and in assay [17] were 13 µM (inactive), 5.25 µM (inactive) and 13.1 µM (inactive), respectively.
For `C/C(=N\C1CCCCC1)c1ccccc1O`, the GI50 in [1], in assay [18], in assay [2], in assay [3], in assay [4] and in assay [5] was > 100 µM (inactive) each time. Besides, the GI50 in [6] is > 100 µM (inactive); in assay [7], > 100 µM (inactive); in [20], > 100 µM (inactive); in [8], 56.1 µM (inactive); in assay [9], > 100 µM (inactive); in assay [10], > 100 µM (inactive). Moreover, the GI50 in assay [11], in [13], in assay [14], in assay [15], in assay [16] and in assay [17] was > 100 µM (inactive) in each case.
With `COCc1nc2c(OC)c(-c3nc4ccc(N5CCN(C)CC5)cc4[nH]3)cc(OC)c2[nH]1`, the GI50 in assay [1] is > 100 µM (inactive); in [18], 27.9 µM (inactive); in assay [2], 16.9 µM (inactive); in [3], > 100 µM (inactive); in assay [4] it was > 100 µM (inactive); in assay [5] it was 33 µM (inactive). Besides, the GI50 in assay [19] is 29.7 µM (inactive); in assay [6] it was 60.7 µM (inactive); in assay [7] it was 30.2 µM (inactive); in assay [20], 80.7 µM (inactive); in assay [8], 33.6 µM (inactive); in [9], 65.9 µM (inactive). The GI50 was 99.8 µM (inactive) in assay [10]; 83.4 µM (inactive) in assay [11]; 48.8 µM (inactive) in [13]; 18.7 µM (inactive) in [14]; 42 µM (inactive) in [15]; 48.9 µM (inactive) in assay [16]. Also, the GI50 in [17] was 40.1 µM (inactive).
In the case of `N#CCOc1ccc(/C=C/C(=O)c2ccc(Cl)cc2)cc1`, the GI50 in assay [1] is 33.7 µM (inactive); in assay [2] it was 28 µM (inactive); in assay [3], 23.9 µM (inactive); in assay [4], > 100 µM (inactive); in assay [5], 28.8 µM (inactive); in assay [19], 31.8 µM (inactive). In addition, the GI50 in [6] was 32.1 µM (inactive); in assay [7], 25.4 µM (inactive); in assay [20], 19 µM (inactive); in [8], 28.5 µM (inactive); in assay [9], 34.8 µM (inactive); in assay [10] it was 39.6 µM (inactive). Besides, the GI50 is 24.8 µM (inactive) in assay [11]; 31.7 µM (inactive) in assay [12]; 22.8 µM (inactive) in assay [13]; 15.6 µM (inactive) in assay [14]; 25.8 µM (inactive) in [15]; 39.7 µM (inactive) in assay [16]. In addition, in assay [17], the GI50 is 22.6 µM (inactive).
Consider `CCN(CC)c1ccc(C2NC(=O)c3ccccc3N2)cc1` (centres undefined), for which the GI50 is > 100 µM (inactive) in [1]; > 28.4 µM (inactive) in assay [2]; 1.85 µM (inactive) in assay [3]; > 22 µM (inactive) in assay [4]; 0.698 µM (active) in assay [5]; 2.82 µM (inactive) in [19]. Also, the GI50 is 3.62 µM (inactive) in assay [6]; 1.88 µM (inactive) in assay [7]; 3.1 µM (inactive) in [20]; 0.522 µM (active) in [8]; 7.03 µM (inactive) in [9]; 5.24 µM (inactive) in assay [10]. The GI50 in assay [11] was 2.77 µM (inactive); in assay [12], 2.19 µM (inactive); in assay [13], 17.1 µM (inactive); in assay [14] it was 2.95 µM (inactive); in assay [15], 4.34 µM (inactive); in [16], 3.27 µM (inactive). Further, the GI50 in assay [17] was 2.99 µM (inactive).
As to `CCOC(=O)c1sc2c(c1OC(=O)c1ccccc1)c(=O)n(-c1ccccc1)c(=S)n2-c1ccccc1`, the GI50 is 32.2 µM (inactive) in assay [1]; 21.7 µM (inactive) in assay [2]; 19.1 µM (inactive) in [3]; 68.7 µM (inactive) in assay [4]; 20.9 µM (inactive) in assay [5]; 24.5 µM (inactive) in assay [19]. Besides, the GI50 in assay [6] was 34.3 µM (inactive); in assay [7] it was 28.5 µM (inactive); in assay [20] it was 23.7 µM (inactive); in [8] it was 36 µM (inactive); in assay [9], 32 µM (inactive); in assay [10] it was 63.8 µM (inactive). Further, the GI50 in [11] was 21 µM (inactive); in assay [12], 25.1 µM (inactive); in [13] it was 40.3 µM (inactive); in assay [14] it was 40.3 µM (inactive); in assay [15] it was 20.3 µM (inactive); in assay [16], 26.1 µM (inactive). Moreover, the GI50 in [17] is 15.9 µM (inactive).
Turning to `C/C(Nc1ccc(Cl)cc1Cl)=C1/CCOC1=O`, the GI50 in assay [1] is > 100 µM (inactive); in assay [2] it was > 100 µM (inactive); in [3], 77.6 µM (inactive); in assay [5], > 100 µM (inactive); in [19], > 100 µM (inactive); in assay [6], 48.3 µM (inactive). Also, the GI50 in assay [7] was 19.9 µM (inactive); in assay [20] it was 63.7 µM (inactive); in assay [8], 56.5 µM (inactive); in assay [9], 92.9 µM (inactive); in assay [10], 10.4 µM (inactive); in assay [11], 59.3 µM (inactive). The GI50 is > 100 µM (inactive) in [12]; 26.2 µM (inactive) in assay [13]; > 100 µM (inactive) in assay [14]; 27.2 µM (inactive) in assay [15]; 78.7 µM (inactive) in assay [16]; 40.4 µM (inactive) in [17].
With `O=C1C=CC2(C=C1)O[C@H](COCc1ccccc1)[C@@H](COCc1ccccc1)O2`, the GI50 in assay [1] is 1.8 µM (inactive); in assay [18], 1.71 µM (inactive); in assay [2], 2.54 µM (inactive); in assay [3], 1.83 µM (inactive); in [4], 1.55 µM (inactive); in [5], 2.27 µM (inactive). Moreover, the GI50 in assay [19] was 2.37 µM (inactive); in assay [6] it was 0.305 µM (active); in assay [7] it was 3.65 µM (inactive); in [20] it was 1.88 µM (inactive); in assay [8] it was 2.59 µM (inactive); in assay [9] it was 1.58 µM (inactive). The GI50 in assay [10] is 1.59 µM (inactive); in [11], 1.77 µM (inactive); in assay [13], 2.92 µM (inactive); in assay [14] it was 1.56 µM (inactive); in assay [15] it was 1.92 µM (inactive); in assay [16], 15.3 µM (inactive). For the same compound, in assay [17], the GI50 was 0.627 µM (active).
For `COc1ccc(/C=C2\N=C(c3ccccc3)N(NC3=NC(=O)CC(=O)N3)C2=O)cc1`, the GI50 in [1], in assay [18], in assay [2], in assay [3], in [4] and in assay [5] was > 100 µM (inactive) in each case. Besides, the GI50 in assay [19], in [6], in assay [7], in [20], in assay [8] and in assay [9] was > 100 µM (inactive) throughout. Moreover, the GI50 in assay [11], in assay [12], in assay [13], in [15], in assay [16] and in [17] was > 100 µM (inactive) throughout.
Regarding `N#Cc1c(C#N)c(-c2ccccc2)n(-c2ccccc2)c1N`, the GI50 in assay [18] is 99.1 µM (inactive); in [2], > 100 µM (inactive); in [3], > 100 µM (inactive); in assay [4] it was > 100 µM (inactive); in assay [5] it was > 100 µM (inactive); in assay [19] it was > 100 µM (inactive). Further, the GI50 in [6] was > 100 µM (inactive); in assay [7], > 100 µM (inactive); in assay [20], 69.5 µM (inactive); in assay [8] it was > 100 µM (inactive); in assay [9], 50.7 µM (inactive); in assay [10], 73.8 µM (inactive). Also, the GI50 in assay [11] was 80.7 µM (inactive); in [13] it was 30.4 µM (inactive); in [14], > 100 µM (inactive); in assay [15], 33.4 µM (inactive); in assay [16], > 100 µM (inactive); in [17], 82.6 µM (inactive).
